Experimental data taken from patent publication US20130065818A1, “Arylamide Compounds And Compositions And Uses Thereof” (POLYMEDIX, priority 2006, published 2013).
In brackets after ≈: the same amount, converted by molar mass. Read-outs that look alike come from different tables or passages of the source.

Legend:
[1] = tested on: Staphylococcus aureus fluoroquinolone-resistant; experiment: MIC, 25 ocular isolates, broth microdilution (Example 8); type: cell-based
Outline: (§1)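 Broth microdilution in Mueller-Hinton broth, polypropylene plates, inoculum from 0.5 McFarland suspension diluted 0.05 ml into 5 ml; final test agent 64–0.0625 μg/ml (128–0.125 μg/ml for P. aeruginosa) in 0.01% acetic acid, 0.2% BSA diluent. Incubated 37° C overnight; MIC read visually as lowest concentration inhibiting visible growth.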

[2] = tested on: Staphylococcus epidermidis (Coagulase-negative Staphylococcus) fluoroquinolone-susceptible; experiment: as above; type: cell-based
Outline: as §1

N=C(N)NCCCCC(=O)Nc1cc(C(F)(F)F)cc(NC(=O)c2cnc(C(=O)Nc3cc(C(F)(F)F)cc(NC(=O)CCCCNC(=N)N)c3SCCN)cn2)c1SCCN [Oligomer 5]
MIC50 ([1]; 25 isolates, Row 13): 0.25 µg/mL (≈ 0.273 µM)
MIC90 ([1]; 25 isolates, Row 22): 0.5 µg/mL (≈ 0.545 µM)
Range of MICs ([1]; 25 isolates, Summary of Results): 0.125 to 0.5 µg/mL
MIC ([1]; Staphylococcus aureus, 25 ocular isolates, read-out: Median MIC): ≤ 0.25 µg/mL
MIC ([1]; Staphylococcus aureus, isolate 1—E504, read-out: MIC): 0.5 µg/mL (≈ 0.545 µM)
MIC ([1]; Staphylococcus aureus, isolate 2—E475, read-out: MIC): 0.25 µg/mL (≈ 0.273 µM)
MIC ([1]; Staphylococcus aureus, isolate 3—E442, read-out: MIC): 0.25 µg/mL (≈ 0.273 µM)
MIC ([1]; Staphylococcus aureus, isolate 4—E427, read-out: MIC): 0.5 µg/mL (≈ 0.545 µM)
MIC ([1]; Staphylococcus aureus, isolate 5—E425, read-out: MIC): 0.25 µg/mL (≈ 0.273 µM)
MIC ([1]; Staphylococcus aureus, isolate 6—E424, read-out: MIC): 0.25 µg/mL (≈ 0.273 µM)
MIC ([1]; Staphylococcus aureus, isolate 7—E417, read-out: MIC): 0.25 µg/mL (≈ 0.273 µM)
MIC ([1]; Staphylococcus aureus, isolate 8—E407, read-out: MIC): 0.125 µg/mL (≈ 0.136 µM)
MIC ([1]; Staphylococcus aureus, isolate 9—E401, read-out: MIC): 0.25 µg/mL (≈ 0.273 µM)
MIC ([1]; Staphylococcus aureus, isolate 10—K1659, read-out: MIC): 0.25 µg/mL (≈ 0.273 µM)
MIC ([1]; Staphylococcus aureus, isolate 11—E96, read-out: MIC): 0.25 µg/mL (≈ 0.273 µM)
MIC ([1]; Staphylococcus aureus, isolate 12—E379, read-out: MIC): 0.5 µg/mL (≈ 0.545 µM)
MIC ([1]; Staphylococcus aureus, isolate 13—E369, read-out: MIC): 0.5 µg/mL (≈ 0.545 µM)
MIC ([1]; Staphylococcus aureus, isolate 14—E361, read-out: MIC): 0.25 µg/mL (≈ 0.273 µM)
MIC ([1]; Staphylococcus aureus, isolate 15—E339, read-out: MIC): 0.25 µg/mL (≈ 0.273 µM)
MIC ([1]; Staphylococcus aureus, isolate 16—E333, read-out: MIC): 0.125 µg/mL (≈ 0.136 µM)
MIC ([1]; Staphylococcus aureus, isolate 17—E332, read-out: MIC): 0.25 µg/mL (≈ 0.273 µM)
MIC ([1]; Staphylococcus aureus, isolate 18—E327, read-out: MIC): 0.25 µg/mL (≈ 0.273 µM)
MIC ([1]; Staphylococcus aureus, isolate 19—E325, read-out: MIC): 0.25 µg/mL (≈ 0.273 µM)
MIC ([1]; Staphylococcus aureus, isolate 20—K950, read-out: MIC): 0.25 µg/mL (≈ 0.273 µM)
MIC ([1]; Staphylococcus aureus, isolate 21—K839, read-out: MIC): 0.25 µg/mL (≈ 0.273 µM)
MIC ([1]; Staphylococcus aureus, isolate 22—K1679, read-out: MIC): 0.25 µg/mL (≈ 0.273 µM)
MIC ([1]; Staphylococcus aureus, isolate 23—K1677, read-out: MIC): 0.5 µg/mL (≈ 0.545 µM)
MIC ([1]; Staphylococcus aureus, isolate 24—K1672, read-out: MIC): 0.25 µg/mL (≈ 0.273 µM)
MIC ([1]; Staphylococcus aureus, isolate 25—K1670, read-out: MIC): 0.25 µg/mL (≈ 0.273 µM)
MIC ([1]; Staphylococcus aureus, n=25 per group, read-out: Median MIC): 0.25 µg/mL (≈ 0.273 µM)
MIC50 ([1]; Staphylococcus aureus, 25 isolates, Summary of Results, read-out: MIC50): 0.25 µg/mL (≈ 0.273 µM)
MIC90 ([1]; Staphylococcus aureus, 25 isolates, Summary of Results, read-out: MIC90): 0.5 µg/mL (≈ 0.545 µM)
MIC ([1]; Staphylococcus aureus, 25 isolates, Summary of Results, read-out: Median MIC): 0.25 µg/mL (≈ 0.273 µM)
MIC50 ([1]; n=25 per group): 0.25 µg/mL (≈ 0.273 µM)
MIC90 ([1]; n=25 per group): 0.5 µg/mL (≈ 0.545 µM)
Range of MICs ([1]; n=25 per group): 0.125 to 0.5 µg/mL
MIC50 ([2]; 25 isolates, Row 13): 0.125 µg/mL (≈ 0.136 µM)
MIC90 ([2]; 25 isolates, Row 22): 0.25 µg/mL (≈ 0.273 µM)
Range of MICs ([2]; 25 isolates, Summary of Results, <0.0625 was Replaced with 0.03125): 0.03125 to 0.25 µg/mL
MIC ([2]; Staphylococcus epidermidis, 25 ocular isolates, read-out: Median MIC): ≤ 0.25 µg/mL
MIC ([2]; Staphylococcus epidermidis, isolate 1—E511, read-out: MIC): 0.25 µg/mL (≈ 0.273 µM)
MIC ([2]; Staphylococcus epidermidis, isolate 2—E489, read-out: MIC): 0.125 µg/mL (≈ 0.136 µM)
MIC ([2]; Staphylococcus epidermidis, isolate 3—E491, read-out: MIC): 0.125 µg/mL (≈ 0.136 µM)
MIC ([2]; Staphylococcus epidermidis, isolate 4—E476, read-out: MIC): 0.25 µg/mL (≈ 0.273 µM)
MIC ([2]; Staphylococcus epidermidis, isolate 5—E473, read-out: MIC): 0.125 µg/mL (≈ 0.136 µM)
MIC ([2]; Staphylococcus epidermidis, isolate 6—E462, read-out: MIC): 0.125 µg/mL (≈ 0.136 µM)
MIC ([2]; Staphylococcus epidermidis, isolate 7—E460, read-out: MIC): 0.125 µg/mL (≈ 0.136 µM)
MIC ([2]; Staphylococcus epidermidis, isolate 8—E453, read-out: MIC): 0.125 µg/mL (≈ 0.136 µM)
MIC ([2]; Staphylococcus epidermidis, isolate 9—E448, read-out: MIC): 0.125 µg/mL (≈ 0.136 µM)
MIC ([2]; Staphylococcus epidermidis, isolate 10—E443, read-out: MIC): < 0.0625 µg/mL
MIC ([2]; Staphylococcus epidermidis, isolate 11—E441, read-out: MIC): 0.125 µg/mL (≈ 0.136 µM)
MIC ([2]; Staphylococcus epidermidis, isolate 12—E438, read-out: MIC): 0.125 µg/mL (≈ 0.136 µM)
MIC ([2]; Staphylococcus epidermidis, isolate 13—E437, read-out: MIC): 0.125 µg/mL (≈ 0.136 µM)
MIC ([2]; Staphylococcus epidermidis, isolate 14—E434, read-out: MIC): 0.125 µg/mL (≈ 0.136 µM)
MIC ([2]; Staphylococcus epidermidis, isolate 15—E433, read-out: MIC): 0.125 µg/mL (≈ 0.136 µM)
MIC ([2]; Staphylococcus epidermidis, isolate 16—E430, read-out: MIC): 0.125 µg/mL (≈ 0.136 µM)
MIC ([2]; Staphylococcus epidermidis, isolate 17—E420, read-out: MIC): 0.125 µg/mL (≈ 0.136 µM)
MIC ([2]; Staphylococcus epidermidis, isolate 18—E419, read-out: MIC): 0.125 µg/mL (≈ 0.136 µM)
MIC ([2]; Staphylococcus epidermidis, isolate 19—E403, read-out: MIC): 0.125 µg/mL (≈ 0.136 µM)
MIC ([2]; Staphylococcus epidermidis, isolate 20—E394, read-out: MIC): 0.125 µg/mL (≈ 0.136 µM)
MIC ([2]; Staphylococcus epidermidis, isolate 21—E393, read-out: MIC): 0.125 µg/mL (≈ 0.136 µM)
MIC ([2]; Staphylococcus epidermidis, isolate 22—E328, read-out: MIC): 0.25 µg/mL (≈ 0.273 µM)
MIC ([2]; Staphylococcus epidermidis, isolate 23—E382, read-out: MIC): 0.125 µg/mL (≈ 0.136 µM)
MIC ([2]; Staphylococcus epidermidis, isolate 24—E381, read-out: MIC): 0.25 µg/mL (≈ 0.273 µM)
MIC ([2]; Staphylococcus epidermidis, isolate 25—E372, read-out: MIC): < 0.0625 µg/mL
MIC ([2]; Staphylococcus epidermidis, n=25 per group, read-out: Median MIC): 0.125 µg/mL (≈ 0.136 µM)
MIC50 ([2]; Staphylococcus epidermidis, 25 isolates, Summary of Results, read-out: MIC50): 0.125 µg/mL (≈ 0.136 µM)
MIC90 ([2]; Staphylococcus epidermidis, 25 isolates, Summary of Results, read-out: MIC90): 0.25 µg/mL (≈ 0.273 µM)
MIC ([2]; Staphylococcus epidermidis, 25 isolates, Summary of Results, read-out: Median MIC): 0.125 µg/mL (≈ 0.136 µM)
MIC50 ([2]; n=25 per group): 0.125 µg/mL (≈ 0.136 µM)
MIC90 ([2]; n=25 per group): 0.25 µg/mL (≈ 0.273 µM)
Range of MICs ([2]; n=25 per group): 0.03125 to 0.25 µg/mL
